The IC50 is the concentration that inhibits the measured activity by half.

Among the data in patent US20260242419A1, “A CYCLIC PEPTIDE FOR TRAPPING INTERLEUKIN-1 BETA” (Merck Sharp & Dohme LLC, priority 2023, published 2026) are IC50 values, retold here.

Starred links: 1 amine or outer side, 2 acyl side, 3 side chain; linkers in the order of their positions; H or OH if unused. Non-standard residues stand in square brackets, D forms with d. Residues, ends and D or L forms follow the SMILES beside them. Ala(2-carboxypyrimidin-5-yl) = N[C@@H](Cc1cnc(C(=O)O)nc1)C(=O)O; dPro(4R-(4-pyridylmethyl)) = O=C(O)[C@H]1C[C@@H](Cc2ccncc2)CN1; Trp(βS-Me,4-F) = C[C@@H](c1c[nH]c2cccc(F)c12)[C@H](N)C(=O)O; Bip(4'-COOH) = N[C@@H](Cc1ccc(-c2ccc(C(=O)O)cc2)cc1)C(=O)O; dPro(4R-Bzl(4-F)) = O=C(O)[C@H]1C[C@@H](Cc2ccc(F)cc2)CN1; Ala(pyrimidin-5-yl) = N[C@@H](Cc1cncnc1)C(=O)O; Phe(4-COOH) = N[C@@H](Cc1ccc(C(=O)O)cc1)C(=O)O; X24 = NC(=O)c1ncc(C[C@H](N[*:1])C(=O)[*:2])cn1; X44 = CC(=O)N1CCN(C[C@H](N[*:1])C(=O)[*:2])CC1; Bip = N[C@@H](Cc1ccc(-c2ccccc2)cc1)C(=O)O; Pro(cis-4-F) = O=C(O)[C@@H]1C[C@H](F)CN1; Dap(CONH2) = NC(=O)NC[C@H](N)C(=O)O; 4Pal = N[C@@H](Cc1ccncc1)C(=O)O; Dab = NCC[C@H](N)C(=O)O; Aib = CC(C)(N)C(=O)O

In this assay the target is T1, IL-1β (Homo sapiens, UniProt P01584).
T1 construct: purchased BioLegend 579404
T1 sequence (P01584 117-269): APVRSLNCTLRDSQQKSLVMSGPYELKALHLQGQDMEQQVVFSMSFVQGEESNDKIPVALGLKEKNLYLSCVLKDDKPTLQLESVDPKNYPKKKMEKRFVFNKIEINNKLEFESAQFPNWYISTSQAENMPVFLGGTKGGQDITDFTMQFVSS
Kind of assay: IL-6 assay in MRC5 cells: inhibition of IL-1β induced IL-6 secretion (AlphaLISA). It is filed as cell-based. The conditions noted are these: inhibition of IL-1β induced IL-6 secretion in MRC5 cells; compound pre-incubated 1 hour with recombinant human IL-1β; read-out: MRC5 IC50. The gist of the method: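 Compound was pre-incubated 1 h at ambient temperature with recombinant human IL-1β at 2λ EC80 before adding human lung fibroblast MRC5 cells (3000/well) in EMEM with 0.025% BSA. After overnight culture at 37 °C, 5% CO2, secreted IL-6 in conditioned medium was measured by AlphaLISA; IC50 from 4-parameter logistic fits.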
(Bead proximity is the source of the signal in Alpha formats.)
`C[C@@H](c1c[nH]c2cccc(F)c12)[C@@H]1NC(=O)[C@@H]2C[C@H](F)CN2C(=O)CNC(=O)[C@H](Cc2ccc(C(=O)O)cc2)NC(=O)[C@H](Cc2ccncc2)NC(=O)[C@H](Cc2ccc(-c3ccc(C(=O)O)cc3)cc2)NC(=O)[C@H]2C[C@@H](Cc3ccncc3)CN2C(=O)CNC(=O)[C@H](CCN)NC(=O)[C@H](CCC(N)=O)NC(=O)[C@H](Cc2cnc(C(N)=O)nc2)NC(=O)C(C)(C)NC(=O)[C@H](Cc2c[nH]c3ccccc23)NC(=O)[C@H](CO)NC(=O)C(C)(C)NC1=O` [Example 267] (cyclo([Bip(4'-COOH)][4Pal][Phe(4-COOH)]G[Pro(cis-4-F)][Trp(βS-Me,4-F)][Aib]SW[Aib][X24]Q[Dab]G[dPro(4R-(4-pyridylmethyl))])): the IC50 came out at 0.014 nM. To `C[C@@H](c1c[nH]c2cccc(F)c12)[C@@H]1NC(=O)[C@@H]2C[C@H](F)CN2C(=O)CNC(=O)[C@H](Cc2ccc(C(=O)O)cc2)NC(=O)[C@H](Cc2ccncc2)NC(=O)[C@H](Cc2ccc(-c3ccc(C(=O)O)cc3)cc2)NC(=O)[C@H]2C[C@@H](Cc3ccncc3)CN2C(=O)CNC(=O)[C@H](CCN)NC(=O)[C@H](CCC(N)=O)NC(=O)[C@H](Cc2cnc(C(=O)O)nc2)NC(=O)C(C)(C)NC(=O)[C@H](Cc2c[nH]c3ccccc23)NC(=O)[C@H](CO)NC(=O)C(C)(C)NC1=O` [Example 268] (cyclo([Bip(4'-COOH)][4Pal][Phe(4-COOH)]G[Pro(cis-4-F)][Trp(βS-Me,4-F)][Aib]SW[Aib][Ala(2-carboxypyrimidin-5-yl)]Q[Dab]G[dPro(4R-(4-pyridylmethyl))])) belongs 0.014 nM; to `C[C@@H](c1c[nH]c2cccc(F)c12)[C@@H]1NC(=O)[C@@H]2C[C@H](F)CN2C(=O)CNC(=O)[C@H](Cc2ccc(C(=O)O)cc2)NC(=O)[C@H](Cc2ccncc2)NC(=O)[C@H](Cc2ccc(-c3ccccc3)cc2)NC(=O)[C@H]2C[C@@H](Cc3ccncc3)CN2C(=O)CNC(=O)[C@H](CCN)NC(=O)[C@H](CCC(N)=O)NC(=O)[C@H](Cc2cnc(C(=O)O)nc2)NC(=O)C(C)(C)NC(=O)[C@H](Cc2c[nH]c3ccccc23)NC(=O)[C@H](CO)NC(=O)C(C)(C)NC1=O` [Example 269] (cyclo([Bip][4Pal][Phe(4-COOH)]G[Pro(cis-4-F)][Trp(βS-Me,4-F)][Aib]SW[Aib][Ala(2-carboxypyrimidin-5-yl)]Q[Dab]G[dPro(4R-(4-pyridylmethyl))])), 0.014 nM. To `C[C@@H](c1c[nH]c2cccc(F)c12)[C@@H]1NC(=O)[C@@H]2C[C@H](F)CN2C(=O)CNC(=O)[C@H](Cc2ccc(C(=O)O)cc2)NC(=O)[C@H](Cc2ccncc2)NC(=O)[C@H](Cc2ccc(-c3ccc(C(=O)O)cc3)cc2)NC(=O)[C@H]2C[C@@H](Cc3ccncc3)CN2C(=O)CNC(=O)[C@H](CNC(N)=O)NC(=O)[C@H](CCC(N)=O)NC(=O)[C@H](Cc2cncnc2)NC(=O)C(C)(C)NC(=O)[C@H](Cc2c[nH]c3ccccc23)NC(=O)[C@H](CO)NC(=O)C(C)(C)NC1=O` [Example 270] (cyclo([Bip(4'-COOH)][4Pal][Phe(4-COOH)]G[Pro(cis-4-F)][Trp(βS-Me,4-F)][Aib]SW[Aib][Ala(pyrimidin-5-yl)]Q[Dap(CONH2)]G[dPro(4R-(4-pyridylmethyl))])) belongs 0.023 nM; to `CC(=O)N1CCN(C[C@@H]2NC(=O)C(C)(C)NC(=O)[C@H](Cc3c[nH]c4ccccc34)NC(=O)[C@H](CCC(=O)O)NC(=O)C(C)(C)NC(=O)[C@H]([C@@H](C)c3c[nH]c4cccc(F)c34)NC(=O)[C@@H]3C[C@H](F)CN3C(=O)CNC(=O)[C@H](Cc3ccc(C(=O)O)cc3)NC(=O)[C@H](Cc3ccncc3)NC(=O)[C@H](Cc3ccc(-c4ccc(C(=O)O)cc4)cc3)NC(=O)[C@H]3C[C@@H](Cc4ccc(F)cc4)CN3C(=O)CNC(=O)[C@H](CO)NC(=O)[C@H](CCC(N)=O)NC2=O)CC1` [Example 271] (cyclo([Bip(4'-COOH)][4Pal][Phe(4-COOH)]G[Pro(cis-4-F)][Trp(βS-Me,4-F)][Aib]EW[Aib][X44]QSG[dPro(4R-Bzl(4-F))])), 0.023 nM.
